This note sets out measurements from patent publication US10912815B2, “Inhibitors of mitochondrial fission and methods of use thereof” (The Board of Trustees of the Leland Stanford Junior …, priority 2011, dated 2021).

No end group written: not given here.

Assay [1] addresses T1, Mfn1 (Homo sapiens, UniProt Q8IWA4).
T1 sequence (Q8IWA4 1-741): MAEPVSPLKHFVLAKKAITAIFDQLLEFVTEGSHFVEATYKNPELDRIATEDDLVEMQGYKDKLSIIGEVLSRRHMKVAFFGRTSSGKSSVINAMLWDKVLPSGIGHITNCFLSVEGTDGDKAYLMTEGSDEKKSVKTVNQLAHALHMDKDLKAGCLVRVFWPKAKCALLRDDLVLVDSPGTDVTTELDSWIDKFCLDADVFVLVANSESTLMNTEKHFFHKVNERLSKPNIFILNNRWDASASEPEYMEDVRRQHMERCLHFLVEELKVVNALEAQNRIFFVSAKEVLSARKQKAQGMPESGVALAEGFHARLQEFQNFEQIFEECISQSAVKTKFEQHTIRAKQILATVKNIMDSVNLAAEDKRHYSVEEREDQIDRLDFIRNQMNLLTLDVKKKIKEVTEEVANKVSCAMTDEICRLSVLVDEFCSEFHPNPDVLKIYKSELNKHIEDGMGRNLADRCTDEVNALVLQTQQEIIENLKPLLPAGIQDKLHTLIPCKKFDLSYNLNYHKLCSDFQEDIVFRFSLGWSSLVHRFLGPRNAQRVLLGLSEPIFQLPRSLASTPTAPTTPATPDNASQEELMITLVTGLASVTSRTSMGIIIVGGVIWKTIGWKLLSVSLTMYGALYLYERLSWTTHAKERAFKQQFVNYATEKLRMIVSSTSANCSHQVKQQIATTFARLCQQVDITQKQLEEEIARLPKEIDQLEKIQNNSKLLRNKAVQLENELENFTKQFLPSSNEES
In words: In vitro GTPase assay, recombinant Mfn1. The format is biochemical. As to conditions: recombinant Mfn1 25 ng, FIG. 2B. How it is done: (§1) First, mitochondrial fission inhibitor constructs were tested to determine what, if any, effects each peptide had on enzyme (GTPase) activity. Recombinant protein Drp1, Mfn1, OPA1 or dynamin-1 (25 ng) was incubated with the indicated modulator peptides for 30 min. GTPase activity was assayed in vitro using a GTPase assay kit (Innova Biosciences, Littleton, USA, or Novus Biologicals, Littleton, Colo.) according to manufacturer's instructions.

Assay [2] has as its target T2, dynamin-1 (Homo sapiens, UniProt Q05193).
T2 sequence (Q05193 1-864): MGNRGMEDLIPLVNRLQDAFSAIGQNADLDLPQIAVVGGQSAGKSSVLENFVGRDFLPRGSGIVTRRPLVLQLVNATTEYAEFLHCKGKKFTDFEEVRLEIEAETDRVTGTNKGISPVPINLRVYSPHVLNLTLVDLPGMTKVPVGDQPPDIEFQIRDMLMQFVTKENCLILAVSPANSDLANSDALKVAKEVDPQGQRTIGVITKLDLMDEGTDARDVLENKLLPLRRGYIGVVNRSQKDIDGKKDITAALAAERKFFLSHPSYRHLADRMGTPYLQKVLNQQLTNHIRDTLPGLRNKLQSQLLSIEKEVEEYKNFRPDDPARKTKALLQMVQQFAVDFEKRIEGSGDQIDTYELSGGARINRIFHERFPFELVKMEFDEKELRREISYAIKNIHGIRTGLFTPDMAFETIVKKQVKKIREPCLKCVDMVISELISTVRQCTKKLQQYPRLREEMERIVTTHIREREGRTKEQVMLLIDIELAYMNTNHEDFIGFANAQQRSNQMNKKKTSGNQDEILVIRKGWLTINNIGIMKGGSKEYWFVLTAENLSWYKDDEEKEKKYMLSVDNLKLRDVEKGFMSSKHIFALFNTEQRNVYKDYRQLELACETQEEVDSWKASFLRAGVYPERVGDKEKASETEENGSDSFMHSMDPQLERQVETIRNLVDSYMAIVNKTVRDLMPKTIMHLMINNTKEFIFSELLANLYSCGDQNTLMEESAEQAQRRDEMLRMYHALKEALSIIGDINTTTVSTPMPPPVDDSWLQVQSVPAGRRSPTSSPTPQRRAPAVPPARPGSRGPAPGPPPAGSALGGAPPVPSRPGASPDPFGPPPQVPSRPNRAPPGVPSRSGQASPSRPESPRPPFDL
In words: In vitro GTPase assay, recombinant dynamin-1. The class given is biochemical. As to conditions: recombinant dynamin-1 25 ng, FIG. 2B. How it is done: as §1

Assay [3] has as its system Drp1 Ser616. In words: Drp1 Ser616 phosphorylation in SH-SY5Y cells. The class given is cell-based, human. How it is done: Cultured human SH-SY5Y neuronal cells were treated with peptide P110 (1 μM) for 30 min prior to 1 hr incubation in the absence or presence of MPP+(1-methyl-4-phenylpyridinium, a specific mitochondrial complex I inhibitor) (2 mM) or CCCP (carbonyl cyanide m-chloro phenyl hydrazone) (10 μM). Western blot analysis of mitochondrial fractions was determined by the indicated antibodies. VDAC was used as a loading control.
The function of Drp1 is regulated at least in part by phosphorylation events.

For assay [4], the system named is Primary rat dopaminergic neurons. In words: Mitochondrial fragmentation in primary dopaminergic neurons exposed to MPP+. Particulars: P110 1 μM, MPP+ 1 μM, 15 hrs, FIG. 10B. The class given is cell-based. The procedure:
(§2) Primary rat dopaminergic neurons (cultured for 6 days) were treated without or with P110 (1 μM) followed by treatment with or without MPP+(1 μM). Two hrs following MPP+ treatment, the cells were stained with MITOSOX™ red (to measure mitochondrial superoxide production) and anti-TH antibody (a marker of dopaminergic neurons). Fifteen hrs after MPP+ treatment, cells were stained with anti-TH antibody and anti-Tom20 antibody (a marker of mitochondria).

For assay [5] the test system is unchanged. The assay can be described thus: Neurite loss of primary dopaminergic neurons exposed to MPP+ (TH staining). The format is cell-based. As to conditions: P110 1 μM, MPP+ 1 μM, FIG. 10C. How it is done: as §2

As to “RRRQRRKKRGYGGDLLPRGS (RRRQRRKKRGYGGDLLPRGS-NH2) [P110, TAT47-57 carrier, GG linker, Drp1 region 110 (GTPase domain) peptide DLLPRGS; C-terminus C(O)-NH2]”, the “effect on GTPase activity of Mfn1 (mitofusin 1)” value in assay [1] is recorded as “no effects”. Further, the “effect on GTPase activity of dynamin-1” value in assay [2] is reported as “no effects”. Moreover, in assay [3] (SH-SY5Y exposed to MPP+ or CCCP, FIG. 3F), the “Drp1 Ser616 phosphorylation” value was “abolished Ser616 phosphorylation”. Further, the “Drp1 levels and phosphorylation under normal conditions” value in assay [3] (SH-SY5Y, no stressor) is recorded as “did not affect”. For the same sequence, the mitochondrial fragmentation entry in assay [4] is reported as “reduced mitochondrial fragmentation”. In assay [5], the “neurite loss of dopaminergic neurons (TH)” value is listed as “reduced neurite loss”.
